Test results published in ChEMBL document CHEMBL4041499, “Synthesis and evaluation of 7-substituted coumarin derivatives as multimodal monoamine oxidase-B and cholinesterase inhibitors for the treatment of Alzheimer's disease” (Eur J Med Chem, 2017).

Columns and labels:
Acetylcholinesterase = Acetylcholinesterase (Electrophorus electricus, UniProt O42275)
[1] = biological target: T1, Amine oxidase [flavin-containing] A (Homo sapiens, UniProt P21397); format: ADME
T1 sequence (P21397 whole entry): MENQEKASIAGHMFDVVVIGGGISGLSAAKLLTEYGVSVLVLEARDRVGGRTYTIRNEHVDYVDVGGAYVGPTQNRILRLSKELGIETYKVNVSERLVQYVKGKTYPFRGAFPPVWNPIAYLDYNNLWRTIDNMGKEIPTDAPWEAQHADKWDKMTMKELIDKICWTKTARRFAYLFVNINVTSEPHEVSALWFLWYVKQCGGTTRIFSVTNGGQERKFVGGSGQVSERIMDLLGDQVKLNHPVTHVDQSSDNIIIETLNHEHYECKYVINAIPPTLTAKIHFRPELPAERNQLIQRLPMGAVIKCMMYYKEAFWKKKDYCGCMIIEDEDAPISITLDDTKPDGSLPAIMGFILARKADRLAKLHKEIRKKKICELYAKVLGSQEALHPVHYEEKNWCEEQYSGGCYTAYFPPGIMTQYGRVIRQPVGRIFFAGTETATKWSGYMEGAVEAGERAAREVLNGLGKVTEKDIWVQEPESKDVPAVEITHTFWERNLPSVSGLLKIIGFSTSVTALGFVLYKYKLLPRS
Description: Inhibition of recombinant human MAO-A assessed as reduction in 4-hydroxyquinolone production using kynuramine as substrate after 20 mins by fluorescence assay

Cholinesterase = Cholinesterase (Equus caballus, UniProt P81908)
Sequence of Cholinesterase (P81908 whole entry): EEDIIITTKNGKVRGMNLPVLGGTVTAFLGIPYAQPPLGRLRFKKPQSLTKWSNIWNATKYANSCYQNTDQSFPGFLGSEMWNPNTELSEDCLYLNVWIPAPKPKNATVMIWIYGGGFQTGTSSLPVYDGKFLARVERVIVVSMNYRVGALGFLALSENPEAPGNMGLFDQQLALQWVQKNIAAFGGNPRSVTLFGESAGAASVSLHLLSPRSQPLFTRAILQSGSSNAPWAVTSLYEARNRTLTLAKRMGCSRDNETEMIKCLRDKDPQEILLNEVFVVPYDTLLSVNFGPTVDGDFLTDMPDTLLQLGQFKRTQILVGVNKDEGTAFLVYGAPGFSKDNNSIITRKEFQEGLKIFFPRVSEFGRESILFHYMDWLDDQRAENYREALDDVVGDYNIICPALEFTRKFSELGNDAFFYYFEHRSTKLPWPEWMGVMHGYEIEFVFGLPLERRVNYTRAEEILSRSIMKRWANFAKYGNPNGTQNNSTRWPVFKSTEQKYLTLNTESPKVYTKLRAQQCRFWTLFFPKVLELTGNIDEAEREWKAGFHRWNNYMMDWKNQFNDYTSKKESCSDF

Sequence of Acetylcholinesterase (O42275 whole entry): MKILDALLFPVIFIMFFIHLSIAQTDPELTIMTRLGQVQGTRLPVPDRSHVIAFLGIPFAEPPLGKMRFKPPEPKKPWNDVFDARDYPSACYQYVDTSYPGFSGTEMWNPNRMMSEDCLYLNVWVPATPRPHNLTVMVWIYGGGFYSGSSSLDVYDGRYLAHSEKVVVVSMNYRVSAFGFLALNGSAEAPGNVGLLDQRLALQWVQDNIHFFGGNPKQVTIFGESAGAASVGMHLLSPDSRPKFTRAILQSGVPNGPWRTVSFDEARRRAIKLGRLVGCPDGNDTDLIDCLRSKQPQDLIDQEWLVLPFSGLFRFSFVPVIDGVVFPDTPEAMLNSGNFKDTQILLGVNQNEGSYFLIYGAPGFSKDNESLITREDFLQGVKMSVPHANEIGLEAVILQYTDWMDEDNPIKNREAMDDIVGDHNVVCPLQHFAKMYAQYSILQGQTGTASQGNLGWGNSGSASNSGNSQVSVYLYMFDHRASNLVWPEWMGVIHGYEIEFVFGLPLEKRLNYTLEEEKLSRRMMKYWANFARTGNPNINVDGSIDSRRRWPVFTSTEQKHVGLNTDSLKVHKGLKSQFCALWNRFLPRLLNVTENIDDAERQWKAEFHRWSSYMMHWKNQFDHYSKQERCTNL

| SMILES | IC50 (Acetylcholinesterase) | IC50 [1] | IC50 (Cholinesterase) |
| --- | --- | --- | --- |
| Cc1c(Cl)c(=O)oc2cc(OCc3ccccc3)ccc12 | > 100 µM | 2.13 µM | 0.96 µM |
| Cc1c(C#N)c(=O)oc2cc(OCc3ccccc3)ccc12 | > 100 µM | 1.38 µM | 21.8 µM |
| Cc1c(C#N)c(=O)oc2cc(OCc3ccc(Cl)cc3)ccc12 | > 100 µM | – | > 100 µM |
| Cc1c(C#N)c(=O)oc2cc(OCCN3CCN(Cc4ccc(Br)cc4)CC3)ccc12 | 38.5 µM | > 10 µM | 13.3 µM |
| Cc1c(C#N)c(=O)oc2cc(OCCN3CCC(Cc4ccccc4)CC3)ccc12 | 9.1 µM | > 10 µM | 5.9 µM |
| Cc1c(C#N)c(=O)oc2cc(OCc3ccc(F)cc3)ccc12 | > 100 µM | – | > 100 µM |
| Cc1c(Cl)c(=O)oc2cc(OCc3ccc(Br)cc3)ccc12 | > 100 µM | – | > 100 µM |
| Cc1c(C#N)c(=O)oc2cc(OCc3ccc(Br)cc3Br)ccc12 | > 100 µM | 0.72 µM | > 100 µM |
| O=c1ccc2ccc(OCCN3CCC(Cc4ccccc4)CC3)cc2o1 | 36.7 µM | > 10 µM | 20.3 µM |
| Cc1c(Cl)c(=O)oc2cc(OCCN3CCC(Cc4ccccc4)CC3)ccc12 | 31.3 µM | > 10 µM | 1.27 µM |
| Cc1c(Cl)c(=O)oc2cc(OCCN3CCN(Cc4ccc(Br)cc4)CC3)ccc12 | > 100 µM | > 10 µM | 3.12 µM |
| O=c1cc(C(F)(F)F)c2ccc(OCCN3CCC(Cc4ccccc4)CC3)cc2o1 | > 100 µM | > 10 µM | > 100 µM |
| O=c1cc(C(F)(F)F)c2ccc(OCc3ccc(Br)cc3)cc2o1 | > 100 µM | > 10 µM | > 100 µM |
| O=c1ccc2ccc(OCCN3CCCCC3)cc2o1 | 54.9 µM | – | – |
| Cc1c(C#N)c(=O)oc2cc(OCc3ccc(Br)cc3)ccc12 | > 100 µM | – | > 100 µM |
| Cc1cc(=O)oc2cc(OCc3ccc(Br)cc3)ccc12 | > 100 µM | 0.05 µM | > 100 µM |
| Cc1cc(=O)oc2cc(OCCN3CCN(Cc4ccc(Br)cc4)CC3)ccc12 | 12.8 µM | > 10 µM | 9.7 µM |
| Cc1cc(=O)oc2cc(OCCN3CCCCC3)ccc12 | 66.4 µM | – | – |
| O=c1ccc2ccc(OCCN3CCN(Cc4ccc(Br)cc4)CC3)cc2o1 | > 100 µM | > 10 µM | 50.1 µM |
| O=c1ccc2ccc(OCc3ccc(Br)cc3)cc2o1 | > 100 µM | – | > 100 µM |
| Cc1c(C#N)c(=O)oc2cc(OCc3ccccc3Br)ccc12 | > 100 µM | > 10 µM | > 100 µM |
| Cc1cc(=O)oc2cc(OCCN3CCC(Cc4ccccc4)CC3)ccc12 | 29.4 µM | > 10 µM | 5.19 µM |
| O=c1cc(C(F)(F)F)c2ccc(OCCN3CCN(Cc4ccc(Br)cc4)CC3)cc2o1 | > 100 µM | > 10 µM | > 100 µM |
